Data as given in US20250282830A1, “ANTI-VIRAL PEPTIDE COMPOSITIONS AND METHODS TO IMPROVE BIOLOGICAL ACTIVITY THEREOF” (priority 2021, published 2025).

How the values were obtained:
[1] = Pharmacokinetic characterization; format: in vivo, BALB/c mice; conditions: mice
Procedure: Male BALB/c mice (InVivos) aged 8-9 weeks were used during the pharmacokinetic characterization experiments. In brief, mice were anaesthetized by isoflurane. AH-D peptide solution (25 mg kg^−1) was then administered by the intravenous (i.v.) route (tail vein). Blood samples were taken by cardiac puncture under isoflurane anaesthesia at regular time points after injection (eight time points per compound). The administered dose was maintained at 5 ml kg^−1. Selected organs were collected after euthanasia and were stored at −80° C. until bioanalysis. Blood samples were mixed with deionized water while tissue samples were homogenized in deionized water before extraction. The samples were then treated with phosphoric acid (5 μl), followed by acetonitrile (25 μl) that contained 15 ng ml^−1 imipramine internal standard, 5% ammonium hydroxide (25 μl), deionized water (100 μl) and 5% Tween-20 (20 μl), before vortexing. The processed samples were then added to pre-activated Strata-X Solid Phase Extraction cartridges (30 mg per 1 ml; Phenomenex), and washed with 500 μl of deionized water, followed by elution in 75/25 acetonitrile/methanol with 1% formic acid. […] The blood and tissue samples were then analysed using a validated bio-analytical, ultra-performance liquid chromatography tandem mass spectrometry method. […]

[2] = Blood-to-brain influx assessment (BBB transport); format: in vivo, ICR-CD-1 mice; conditions: mice
Procedure: Female, Institute for Cancer Research, Caesarean Derived-1 (ICR-CD-1) mice (7 to 10 weeks old; Envigo) were used to assess the in vivo blood-brain barrier (BBB) transport properties of AH-D peptide. The BBB permeability of AH-D was evaluated according to multiple time regression (MTR) analysis. In brief, mice were anesthetized by injecting 40% urethane intraperitoneally. Approximately 200 μl of AH-D peptide solution (10 mg kg^−1) was injected into the jugular internalis vein, then blood samples were collected from the carotid artery at selected time points after injection (minimum five time points per compound). Immediately after blood collection, the mice were euthanized by decapitation. The collected blood samples were centrifuged at 10,000 g for 15 min at 21° C. and the brains were isolated. The brain and the serum of each mouse were then analysed using a validated bio-analytical, ultrahigh-performance liquid chromatography tandem mass spectrometry method. Modelling of the data was performed according to the linear Gjedde-Patlak equation, giving the influx rate constant Kin (unidirectional clearance) of AH-D peptide. The molar concentration in the brain was also calculated by converting the mass of peptide per mass of brain tissue into the mass of peptide per volume of brain tissue by assuming the brain density to be 1.04 g ml^−1. […]

DENV-1 = experiment: Plaque reduction neutralization assay, DENV-1; format: cell-based, Dengue virus serotype 1; conditions: Vero cells; virus pre-incubated with peptide 1 h at 37° C.; read-out: DENV-1 PRNT50
Procedure: (§1) Vero cells were seeded at 1×10^5 cells per well and incubated overnight. Twofold serial dilutions of peptide were incubated with 200-300 p.f.u. of virus for 1 h at 37° C. Cells were infected with the virus-peptide mixture for 1 h at 37° C. The inoculum was removed and 0.8% (wt/vol) methylcellulose in medium supplemented with 1% FBS was added. After 3-5 days incubation, plates were fixed and analysed for plaques by immunostaining (DENV). For immunostaining, the cells were fixed, followed by incubation with 4G2, a mouse anti-DENV E protein monoclonal antibody (1:2,000 dilution), for 16-20 h. After addition of a secondary antibody, goat anti-mouse IgG (H+L)-HRP conjugate (1:2,000 dilution), the TrueBlue peroxidase substrate (KPL) was added and the optical density was measured at a wavelength of 450 nm. For crystal violet staining, cells were fixed with fixing solution (5% glutaric dialdehyde in Dulbecco's PBS) followed by staining with 0.1% crystal violet in fixing solution. The IC50 value was calculated by comparing the relative number of plaques in peptide-treated samples to virus-only samples using a four-parameter logistic curve fit.

DENV-2 = experiment: Plaque reduction neutralization assay, DENV-2; format: cell-based, Dengue virus serotype 2; conditions: Vero cells; virus pre-incubated with peptide 1 h at 37° C.; read-out: DENV-2 PRNT50
Procedure: as §1

DENV-3 = experiment: Plaque reduction neutralization assay, DENV-3; format: cell-based, Dengue virus serotype 3; conditions: Vero cells; virus pre-incubated with peptide 1 h at 37° C.; read-out: DENV-3 PRNT50
Procedure: as §1

DENV-4 = experiment: Plaque reduction neutralization assay, DENV-4; format: cell-based, Dengue virus serotype 4; conditions: Vero cells; virus pre-incubated with peptide 1 h at 37° C.; read-out: DENV-4 PRNT50
Procedure: as §1

[3] = Time-lapse fluorescence microscopy imaging of peptide-induced vesicle rupture; conditions: small and large tethered vesicles
Procedure: Highly parallel measurements of peptide-induced liposome rupture were conducted by time-lapsed epifluorescence microscopy imaging. An Eclipse Ti-E inverted microscope (Nikon) with a high-pressure mercury lamp, a CFI Plan Apochromat TIRF×60 oil-immersion objective (NA 1.49; Nikon) and an Andor iXon3 897 EMCCD camera (Andor Technology), was utilized for measurements. The samples were illuminated with a mercury lamp (Intenslight C-HGFIE) using a TRITC filter set. Briefly, glass coverslips were assembled into a microfluidic flow cell, and coated with a thin layer of PLL-g-PEG(-biotin), followed by tethering of 0.025 μg ml^−1 liposomes via biotin-neutravidin coupling. Peptide was then added at a volumetric rate of 100 μl min^−1, and micrographs were recorded every 5-30 s depending on the particular experiment. The initial time was defined by when the peptide solution entered the channel inlet. Data processing and analysis were conducted using ImageJ (National Institutes of Health) and Python(x,y) software packages. The diameter of individual liposomes was estimated based on fluorescence intensity values. […]
Using time-lapse fluorescence microscopy imaging, we further investigated the interactions of different versions of Peptides 2 and 4 with tethered vesicles at the single-vesicle level and saw different degrees of vesicle rupture in terms of total extent and speed (FIG. 14).

Compound | Bioavailability [1] | Circulation half-time ([1]; 25 mg kg−1 i.v.) | Blood brain barrier (BBB) crossing [2] | Blood brain barrier (BBB) crossing ([2]; listed as D-amino acid version of peptide 2) | IC50 (DENV-1) [nM] | IC50 (DENV-2) [nM] | IC50 (DENV-3) [nM] | IC50 (DENV-4) [nM] | Dependence of vesicle rupture on vesicle size (membrane-curvature sensing), single-vesicle analysis [3]
CC[C@@H](C)[C@@H](NC(=O)[C@@H](Cc1c[nH]c2ccccc12)NC(=O)[C@@H](CC(=O)O)NC(=O)[C@@H](Cc1c[nH]c2ccccc12)NC(=O)[C@H](NC(=O)[C@@H](CC(=O)O)NC(=O)[C@@H](CCCNC(=N)N)NC(=O)[C@@H](CC(C)C)NC(=O)[C@@H](Cc1c[nH]c2ccccc12)NC(=O)[C@@H](CO)NC(=O)CNC(=O)[C@H](N)CO)C(C)C)C(=O)N[C@H](CS)C(=O)N[C@@H](C(=O)N[C@@H](C(=O)N[C@H](CC(C)C)C(=O)N[C@@H](C(=O)N[C@H](CC(=O)O)C(=O)N[C@H](Cc1ccccc1)C(=O)N[C@H](CCCCN)C(=O)N[C@@H](C(=O)N[C@H](Cc1c[nH]c2ccccc12)C(=O)N[C@H](CC(C)C)C(=O)N[C@H](CCC(N)=O)C(=O)N[C@H](CO)C(=O)N[C@H](CCCCN)C(=O)N[C@H](CC(C)C)C(=O)O)[C@H](C)O)[C@H](C)O)C(C)C)[C@H](C)O [AH-D peptide] | high bioavailability | relatively long circulation half-time | able to cross the blood brain barrier | BBB-crossing activity to achieve therapeutic concentrations in the brain |  |  |  |  | 
SGSWLRDIWDWICEVLSDFKTWLKAKL [Peptide O1O] |  |  |  |  | 132 | 242 | 175 | 286 | 
SGSWLRDIWEWVCSILTDFKNWLSAKL [Peptide N4N] |  |  |  |  | 281 | 1350 | 3880 | 984 | 
SGSWLRDIWEWVCSILTDFKNWLSAKL [Peptide N4O] |  |  |  |  | 278 | 556 | 2790 | 333 | 
SGSWLRDIWEWVCSILTDFKNWLSAKL [Peptide O4O] |  |  |  |  | 365 | 1210 | 2190 | 1560 | 
SGSWLRDVWDWICTVLTDFKTWLQSKL [Peptide N2N] |  |  |  |  | 115 | 290 | 436 | 171 | have membrane-curvature sensing mechanisms
SGSWLRDVWDWICTVLTDFKTWLQSKL [Peptide N2O] |  |  |  |  | 146 | 384 | 662 | 266 | ruptured vesicles independently of vesicle size
SGSWLRDVWDWVCTILTDFKNWLTSKL [Peptide N3N] |  |  |  |  | 121 | 389 | 936 | 139 | 
SGSWLRDVWDWVCTILTDFKNWLTSKL [Peptide N3O] |  |  |  |  | 182 | 308 | 1020 | 288 | 
SGSWLRDVWDWVCTILTDFKNWLTSKL [Peptide O3O] |  |  |  |  | 148 | 292 | 237 | 267 | 
